# Source: ChEMBL document CHEMBL1130873 (Bioorg Med Chem Lett, 1998)
# Tests used:
# [1] = Aerobic cytotoxic activity was evaluated by the growth inhibition of AA8 (chinese hamster) aerobic cells; assay type: functional, cell-based; settings: Cricetulus griseus, CHO-AA8
# [2] = tested on: SK-OV-3; assay: (§1) Aerobic cytotoxic activity was evaluated by the growth inhibition of SKOV (human ovarian cancer line) aerobic cells; assay type: functional, cell-based
# [3] = Concentration required to reduce cell survival tunder hypoxic conditions using the UV4 aerobic cells; assay type: functional, Cricetulus griseus
# [4] = Aerobic cytotoxic activity was evaluated by the growth inhibition of UV4 aerobic cells; assay type: functional, cell-based; settings: Cricetulus griseus
# [5] = tested on: SK-OV-3; assay: as §1; assay type: functional
# [6] = Concentration required to 10% of controls reduce cell survival under hypoxic conditions using the UV4 aerobic cells; assay type: functional, Cricetulus griseus
SMILES,IC50 [1],IC50 [2],CT10 [3],IC50 [4],CT10 [5],CT10 [6]
NC(=O)c1cc(N(CCCl)CCCl)c([N+](=O)[O-])cc1[N+](=O)[O-],1450 µM,> 1000 µM,95 µM,870 µM,–,–
CN(C)CCNC(=O)c1cc(N(CCCl)CCCl)c([N+](=O)[O-])cc1[N+](=O)[O-],220 µM,–,–,3.1 µM,1300 µM,400 µM
